Patent US9980942B2, “Rejuvenation of precursor cells” (Children's Hospital Medical Center, priority 2012, dated 2018)
“Also recorded” adds a separate entry of the source.

Legend:
Cdc42 = molecular target: T1, Cdc42 (Mus musculus, UniProt P60766); test: Cdc42-GTPase effector domain pull-down / Western blot; type: cell-based; conditions: CASIN 5 μM, aged lineage depleted bone marrow cells
T1 construct: lineage depleted BM cells (10^6) were lysed in a Mg2+ lysis/wash buffer; endogenous in cells; host or cells: lineage-depleted bone marrow (Lin- BM) cells from aged C57BL/6 mice
T1 sequence (P60766 whole entry, the tested form may be a part): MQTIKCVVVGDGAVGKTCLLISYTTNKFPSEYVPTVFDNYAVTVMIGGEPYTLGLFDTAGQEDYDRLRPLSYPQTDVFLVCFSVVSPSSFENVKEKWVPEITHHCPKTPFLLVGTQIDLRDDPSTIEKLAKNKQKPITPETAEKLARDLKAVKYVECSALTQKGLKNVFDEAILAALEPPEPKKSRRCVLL
Description: Relative levels of GTP-bound Cdc42 were determined by an effector pull-down assay. Briefly, lineage depleted BM cells (10^6) were lysed in a Mg2+ lysis/wash buffer (Upstate cell signaling solutions) containing 10% glycerol, 25 mM sodium fluoride, 1 mM sodium orthovanadate and a protease inhibitor cocktail (Roche Diagnostics). Samples were incubated with PAK-1 binding domain/agarose beads and bound (activated) as well as unbound (non-activated) Cdc42 fractions were probed by immunoblotting with an anti-Cdc42 antibody (Millipore, rabbit polyclonal). Activated protein was normalized to total protein and/or β-actin (Sigma) and the relative amount was quantified by densitometry.

aged LT-HSCs [1] = test: Apoptosis and cell cycle staining (Hoechst/Pyronin Y, Annexin V); type: cell-based, mouse; conditions: 5 μM CASIN, 16 hrs
Description: Hoechst/PY staining was performed as previously described (Passegue et al., 2005). Briefly, 25,000 FACS-sorted LT-HSCs were incubated for 16 hrs in HBSS+10% FBS±CASIN (5 μM) in a water jacketed incubator at 37° C., 5% CO2, 3% O2. Then HOECHST 33342 (Invitrogen) was added directly to the medium at a final concentration of 20 μg/ml and samples were kept in incubation at 37° C., 5% CO2, 3% O2 for 45 min. PironinY (Sigma-Aldrich) was then added at a concentration of 1 μg/ml, and cells were incubated for additional 15 minutes. Cells were resuspended and incubated with anti-Annexin V (BD Pharmingen) according to manufacturer's instruction, washed and immediately analyzed on a LSRII (BD Biosciences).

dorsal skin = test: Wound healing of full-thickness excision wounds after CASIN injection; type: in vivo, mice
Description: To further assess the effects of in vivo administration of CASIN on aging parameters in the skin, aged mice are treated with CASIN as described in Example 5. The treated and untreated aged and young mice are then tested for and wound healing, as described below.
On day 28 after initial treatment with CASIN, each mouse is tested with 25 mm oblong full-thickness excision wounds (6 mice of each type per experiment), including the striated muscle layer (panniculus carnosus), on the dorsal skin of treated and untreated mice. One day after surgery a clear thin film of dried exudate covers the wounds in both untreated and treated mice. Build-up of dehydrated wound crusts or scabs begin at day 3 and become subsequently more extensive. In the aged, untreated mice, scabs are thicker and extravasation of blood, visible in the gaps within the scabs, is more frequent and extensive than that in the treated mice. In control young mice, and in treated aged mice, loss of wound scabs begins at day 17 and is complete in all mice by day 24 with wounds well-healed and epithelial covering restored. In contrast, the scabs in untreated aged mice start to come off partially around day 14, resulting in a scab with a gaping red wound field, which is evident even at 22 days. Healing of untreated aged mice wounds remains incomplete on day 24, and complete healing in all mice is observed between 25 and 31 days. These experiments indicate that transient treatment (days 1-5) with CASIN causes improved healing of skin wounds.

aged LT-HSCs [2] = test: Competitive serial LT-HSC transplantation after ex vivo CASIN treatment; type: in vivo, mouse
Description: For competitive LT-HSC transplantation, young (2-4-month-old) and aged (20-26-month-old) C57BL/6 mice (Ly5.2^+) were used as donors. 200 LT-HSCs were sorted into 96 multi-well plates and cultured (either in suspension or adherent to fibronectin) for 16 hrs in HBSS+10% FBS±CASIN (5 μM) in a water jacketed incubator at 37° C., 5% CO2, 3% O2. Stem cells were then mixed with 3×10^5 BM cells from young (2-4-month-old) BoyJ competitor mice (Ly5.1^+) and then transplanted into BoyJ recipient mice (Ly5.1^+).
Peripheral blood (PB) chimerism was determined by FACS analysis every 8 weeks. 24 weeks post primary transplants, 2×10^6 BM cells from an individual primary recipient mouse were injected into an individual secondary pre-conditioned recipient BoyJ mouse. Experiment was performed three times with LT-HSCs cultured in suspension and two times with LTHSCs cultured on a fibronectin-coated substrate without any difference in experimental outcome. Primary transplanted mice were regarded engrafted when PB chimerism was higher or equal to 1.0% and contribution was detected in all lineages. Secondary transplanted mice were regarded as engrafted when PB chimerism was higher or equal to 0.5% and contribution was detected in all lineages.
PB and BM cell immunostaining was performed according to standard procedures and samples were analyzed on a LSRII flow cytometer (BD Biosciences). Lineage FACS analysis data are plotted as the percentage of B220+, CD3+ and Myeloid (Gr-1+, Mac-1+ and Gr-1+Mac-1+) cells among donor-derived Ly5.2^+ cells. As for early hematopoiesis analysis, mononuclear cells were isolated by low-density centrifugation (Histopaque 1083, Sigma) and stained with a cocktail of biotinylated lineage antibodies. After lineage depletion by magnetic separation (Dynalbeads, Invitrogen), cells were stained with anti-Sca-1 (clone D7) (eBioscience), anti-c-kit (clone 2B8) (eBioscience), anti-CD34 (clone RAM34) (eBioscience), anti-CD127 (clone A7R34) (eBioscience), anti-Flk-2 (clone A2F10) (eBioscience) and Streptavidin (eBioscience). Early hematopoiesis FACS analysis data were plotted as percentage of long-term hematopoietic stem cells (LTHSCs, gated as LSK CD34−/lowFlk2−), short-term hematopoietic stem cells (ST-HSCs, gated as LSK CD34+Flk2−) and lymphoid-primed multipotent progenitors (LMPPs, gated as LSK CD34+Flk2+) (Adolfsson et al., 2005) distribution among donor-derived LSKs (Linnegc-kit+sca-1+ cells). LSK and common lymphoid progenitor cells (CLP, gated as Lin−c-Kit−/low Sca-1−/low IL7Rα+) (Karsunky et al., 2008) were plotted as percentage among donor-derived Linneg cells. In order to isolate LT-HSCs, lineage depletion was performed to enrich for lineage negative cells. Lineage negative cells were then stained as aforementioned and sorted using a BD FACS Aria I or a BD FACS Aria III (BD Bioscience).

aged HSCs = test: Whole genome expression profiling of HSCs; type: cell-based; conditions: CASIN treated aged HSCs
Description: Aged HSCs have distinct whole genome expression profiles. To define the effect of Cdc42 inhibition by CASIN on molecular pathways regulating HSCs, cDNA was derived from linearly amplified RNA from CASIN-treated or untreated aged or young HSCs, using tested amplification, array hybridization and bioinformatic analysis services provided by the company Miltenyi. The goal of these experiments was to identify changes in whole genome expression patterns or in functionally defined groups of genes, rather than changes in individual genes. Differences in expression of functional gene groups was confirmed by real-time RT-PCR of selected genes using the standard ABI/Taqman probe system.

[3] = treated aged mice, 25 mm full-thickness excision wounds

OCCNC1CCCc2c1[nH]c1ccc(-c3ccccc3)cc21 (stereo not shown) [CASIN]
level of active Cdc42 (Cdc42-GTP) (Cdc42): reduced the elevated level of active Cdc42 observed in aged primitive hematopoietic cells to the level observed in young cells
apoptosis (aged LT-HSCs [1]): did not alter; also recorded: doesn't alter
cell cycle status (aged LT-HSCs [1]): did not alter; also recorded: doesn't alter
wound healing (dorsal skin; aged mice treated as in Example 5): respond similarly or nearly identical to the skin of young mice
loss of wound scabs begins (dorsal skin; [3]): 17 days
loss of wound scabs complete in all mice (dorsal skin; [3]): ≤ 24 days
contribution to the B-cell compartment in PB (aged LT-HSCs [2]; primary recipients): increase
contribution to the myeloid lineage (aged LT-HSCs [2]; primary recipients): reduced
frequency of donor-derived LT-HSCs among donor-derived LSKs (aged LT-HSCs [2]; primary recipients): significantly reduced
B-cell and myeloid engraftment in PB and BM (aged LT-HSCs [2]; secondary transplant): indistinguishable from young LT-HSCs
contribution to the LT-HSC pool in BM (aged LT-HSCs [2]; secondary transplant): indistinguishable from young LT-HSCs
overall regenerative capacity (chimerism in PB) (aged LT-HSCs [2]; secondary transplant, compared to aged LT-HSCs): increased and stable chimerism in PB
whole genome expression pattern (aged HSCs): largely resemble young HSCs
